In publication PMC11678245, “The Molecular Basis of the Intrinsic and Acquired Resistance to Azole Antifungals in Aspergillus fumigatus” (Journal of Fungi, 2024):
Values joined by “and” are separate entries in the source; they are usually repeats but may differ in a detail not shown here. Equal values may be shown once. “Also recorded” adds a separate entry of the source. Read-outs that look alike come from different tables or passages of the source.

Key:
AfCYP51A-6×His = AfCYP51A-6×His (Aspergillus fumigatus, UniProt Q4WNT5); assay: Type I binding of substrates (difference spectra); parameters: Full-length codon-optimised AfCYP51A-6×His and AfCYP51B-6×His were constitutively co-expressed; made in house; conditions: AfCYP51A-6×His 5 µM, concentrations up to 300 μM
Procedure: (§1) The concentration of AfCYP51A and AfCYP51B, purified using Ni-NTA affinity chromatography and used for the spectrophotometric type I and type II binding assays, was calculated using an extinction co-efficient of λ417nm = 117 mM^−1 cm^−1 applied to the absolute absorption spectrum of the preparations. In addition, the amount of “active” cytochrome P450 enzyme was determined using the carbon monoxide (CO) binding spectra of these preparations.
Type I binding of substrates lanosterol and eburicol in the active site of the Ni-NTA affinity-purified AfCYP51A and AfCYP51B enzymes was assessed using the method of Warrilow et al.. […] Substrate saturation curves were constructed by plotting the maximal ∆Apeak−trough obtained between 350 and 500 nm, allowing for a change in the reaction volume during the titration. The substrate binding constant (KS) was calculated by nonlinear regression (Levenberg–Marquardt algorithm) applied to the Michaelis–Menten equation or the Hill equation. GraphPad Prism 9.2.0 software was used to identify the best fit for the data.

AfCYP51B-6×His = biological target: T1, AfCYP51B-6×His (Aspergillus fumigatus, UniProt E9QY26); assay: Type I binding of substrates (difference spectra); conditions: for type I binding spectrum peak / type I binding spectrum trough: AfCYP51B-6×His; for affinity of AfCYP51B for eburicol versus lanosterol: ratio of Ks values
T1 sequence (E9QY26 1-524): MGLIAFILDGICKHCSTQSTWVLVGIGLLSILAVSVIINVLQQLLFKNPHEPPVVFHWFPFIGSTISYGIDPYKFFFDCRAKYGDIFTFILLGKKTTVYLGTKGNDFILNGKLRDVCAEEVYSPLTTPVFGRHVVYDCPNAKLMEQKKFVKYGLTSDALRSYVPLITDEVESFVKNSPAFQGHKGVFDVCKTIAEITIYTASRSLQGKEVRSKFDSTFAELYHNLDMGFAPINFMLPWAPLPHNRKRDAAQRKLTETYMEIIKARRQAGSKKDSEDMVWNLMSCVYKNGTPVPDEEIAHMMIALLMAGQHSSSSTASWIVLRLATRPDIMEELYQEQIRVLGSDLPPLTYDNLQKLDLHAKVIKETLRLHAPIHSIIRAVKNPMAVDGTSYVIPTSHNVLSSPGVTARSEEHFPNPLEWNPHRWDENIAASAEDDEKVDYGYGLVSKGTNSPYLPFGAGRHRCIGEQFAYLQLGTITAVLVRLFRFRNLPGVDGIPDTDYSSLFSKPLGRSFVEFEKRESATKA
Procedure: as §1
Type I binding of substrates lanosterol and eburicol in the active site of the Ni-NTA affinity-purified AfCYP51A and AfCYP51B enzymes was assessed using the method of Warrilow et al.. Titrations of 5 μM AfCYP51-6×His protein with lanosterol or eburicol (1 to 250 μM) were measured using a Cary 300 UV–Visible Spectrophotometer (Agilent Technologies, Santa Clara, CA, USA). Substrate saturation curves were constructed by plotting the maximal ∆Apeak−trough obtained between 350 and 500 nm, allowing for a change in the reaction volume during the titration. The substrate binding constant (KS) was calculated by nonlinear regression (Levenberg–Marquardt algorithm) applied to the Michaelis–Menten equation or the Hill equation. GraphPad Prism 9.2.0 software was used to identify the best fit for the data.

[1] = AfCYP51B-6×His 5 μM, Michaelis–Menten equation

Sequence of AfCYP51A-6×His (Q4WNT5 whole entry): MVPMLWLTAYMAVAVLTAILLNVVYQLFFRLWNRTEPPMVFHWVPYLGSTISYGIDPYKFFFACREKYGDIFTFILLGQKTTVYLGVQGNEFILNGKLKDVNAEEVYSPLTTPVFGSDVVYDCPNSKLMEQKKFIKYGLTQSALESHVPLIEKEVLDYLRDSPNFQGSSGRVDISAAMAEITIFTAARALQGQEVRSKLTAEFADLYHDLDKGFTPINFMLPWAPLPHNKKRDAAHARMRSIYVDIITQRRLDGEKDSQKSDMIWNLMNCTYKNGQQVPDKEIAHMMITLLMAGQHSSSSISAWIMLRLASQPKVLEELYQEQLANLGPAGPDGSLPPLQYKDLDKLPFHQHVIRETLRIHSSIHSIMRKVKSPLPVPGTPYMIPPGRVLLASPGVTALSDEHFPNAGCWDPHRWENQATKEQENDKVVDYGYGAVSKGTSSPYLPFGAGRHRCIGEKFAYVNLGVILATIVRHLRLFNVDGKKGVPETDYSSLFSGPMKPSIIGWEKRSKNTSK

| SMILES | type I binding response (AfCYP51A-6×His) | Kd (AfCYP51B-6×His) [µM] | type I binding spectrum peak (AfCYP51B-6×His) [nm] | type I binding spectrum trough (AfCYP51B-6×His) [nm] | ΔAmax (type I binding) (AfCYP51B-6×His; [1]) | ΔAmax (type I binding) (AfCYP51B-6×His; AfCYP51B-6×His 5 μM, Michaelis–Menten equation, listed as eburicol) | affinity of AfCYP51B for eburicol versus lanosterol (AfCYP51B-6×His) | Kd (AfCYP51B-6×His; AfCYP51B-6×His 5 μM, type I binding, Michaelis–Menten equation, read-out: Ks) [µM] |
| --- | --- | --- | --- | --- | --- | --- | --- | --- |
| C=C(CC[C@@H](C)[C@H]1CC[C@@]2(C)C3=C(CC[C@]12C)[C@@]1(C)CC[C@H](O)C(C)(C)C1CC3)C(C)C (stereo partly shown) [Eburicol, eburicol] | did not give the expected type I binding response; also recorded: did not give a type I binding response | 71 | 387 | 422 | 0.161 | 0.16 | at least 6 fold | – |
| CC(C)=CCC[C@@H](C)[C@H]1CC[C@@]2(C)C3=C(CC[C@]12C)[C@@]1(C)CC[C@H](O)C(C)(C)[C@@H]1CC3 [Lanosterol, lanosterol] | did not give the expected type I binding response; also recorded: did not give a type I binding response | – | 386 | 423 | 0.22 and 0.219 | – | approximately 6 fold | 477 |
